In patent US20150164930A1, “USE OF ARGINASE INHIBITORS IN THE TREATMENT OF ASTHMA AND ALLERGIC RHINITIS” (RIJKSUNIVERSITEIT GRONINGEN, priority 2006, published 2015):

What was measured:
Type in all cases: in vivo
[1] = tested on: guinea pig model of allergic asthma (ovalbumin-sensitized, airway responsiveness to inhaled histamine); experiment: Reversal of allergen-induced AHR in guinea pig model of allergic asthma (reversion protocol); details: for effect on allergen-induced AHR after the EAR (histamine PC100): inhalation at 5.5 h after ovalbumin; for effect on allergen-induced AHR after the EAR (histamine PC100) / effect on allergen-induced AHR after the LAR (histamine PC100) / effect on basal airway responsiveness to inhaled histamine (PC100): ABH 25 mM, L- or D-arginine 1 M nebulizer concentration; for effect on allergen-induced AHR after the LAR (histamine PC100): inhalation at 23.5 h after ovalbumin; for effect on basal airway responsiveness to inhaled histamine (PC100): inhaled 15 min, PC100 30 min before and after inhalation
Excerpt: (§1) Outbred male specified pathogen free Dunkin Hartley guinea pigs (Harlan Heathfield, UK) were used in this example. All animals, weighing approximately 250 g, were actively IgE-sensitized to ovalbumin as described by Van Amsterdam et al. [Agents Actions 1989, 26:48-51]. The animals were operated on 2 weeks after sensitization and used experimentally in weeks 4 and 5 after sensitization. The animals were housed in individual cages in climate controlled animal quarters and given water and food ad libitum, while a 12 h on/12 h off light cycle was maintained. All protocols described in this study were approved by the University of Groningen Committee for Animal Experimentation.
(§2) Airway function was assessed by on-line measurement of pleural pressure (Ppl) under unrestrained conditions as described previously [Santing et al., Pulm Pharmacol 1992, 5:265-272; Meurs et al., Nature Protocols 2006, 1:840-847].
(§3) In short, a small fluid filled latex balloon catheter was surgically implanted inside the thoracic cavity. The free end of the catheter was driven subcutaneously to the neck of the animal, where it was exposed and attached permanently. Via an external fluid filled cannula, the pleural balloon catheter was connected to a pressure transducer (TXX R, Viggo-Spectramed, Bilthoven, Netherlands). Ppl (in cm H2O) was measured continuously using an on-line computer system.
(§4) Allergen and histamine provocations were performed by inhalation of aerosolized solutions. These provocations were carried out in a specially designed perspex cage of 9 l, in which the guinea pigs could move freely as previously described [Santing et al.; Meurs et al., both supra]. A DeVilbiss nebulizer (type 646) driven by an airflow of 8 l/min provided the aerosol with an output of 0.33 ml/min. The animals were habituated to the experimental conditions and the provocations procedure at least one week after surgery, when preoperative weight was restored, as described previously [Meurs et al, supra].
(§5) On the experimental days following the habituation procedure, allergen and/or histamine provocations were performed as described below. All provocations were preceded by an adaptation period of at least 30 min, followed by two consecutive control provocations with saline, each provocation lasting 3 min and separated by 7 min intervals. A baseline Ppl value was calculated by averaging the Ppl values from the last 20 min of the adaptation period.
(§6) In order to assess the airway reactivity for histamine, provocations with increasing concentration steps (6.25, 12.5, 25, 50, 75, 100 and 125 μg/ml) in saline were performed. Histamine provocations lasted 3 min and were separated by 7 min intervals. Animals were challenged until Ppl was increased by more than 100% above baseline for at least 3 consecutive minutes. The concentration of histamine causing a 100% increase of Ppl (PC 100) was derived by linear interpolation of the concentration Ppl curve and was used as an index for airway reactivity towards histamine. Ppl returned to baseline within 15 min after the last histamine provocation.
(§7) Allergen provocations were performed by inhalation of increasing concentrations of 0.5, 1.0 or 3.0 mg/ml ovalbumin in saline and were discontinued when the first signs of respiratory distress were observed and an increase in Ppl of more than 100% was reached.
On two different occasions, separated by one week interval, guinea pigs were treated either with vehicle (saline) or drug (ABH, L-arginine or D-arginine), to establish the acute effects of these drugs on basal airway responsiveness to histamine as well as on allergen-induced airway hyperresponsiveness (AHR) after the EAR and the LAR (FIG. 2).
On the first experimental day, saline- or drug induced effects on basal histamine reactivity were established. Thirty minutes after the assessment of the basal histamine PC100, an aerosol of saline (control) or 25 mM ABH, 1.0 M L-arginine or 1.0 M D-arginine (nebulizer concentrations) was inhaled for 15 min. […]

[2] = tested on: guinea pig model of allergic asthma (ovalbumin-sensitized); experiment: Prevention of allergen-induced EAR, LAR and AHR by pretreatment, equal allergen dose for both treatment groups (protection protocol, second experiment)
Excerpt: as §1, §2, §3, §4, §5, §6, §7
In a second experiment, animals were challenged once with allergen. On the first experimental day, the basal histamine PC100 was assessed. The next day, animals were pretreated with either saline or ABH (25 mM; nebulizer concentration) 0.5 h before and 8 h after allergen inhalation. The ABH pretreated animals were challenged with the same allergen dose that caused airway obstruction in the saline treated guinea pigs. […]

[3] = tested on: guinea pig model of allergic asthma (ovalbumin-sensitized); experiment: Prevention of allergen-induced AHR by pretreatment, animals challenged with increasing allergen doses until obstruction (protection protocol)
Excerpt: as §1, §2, §3, §4, §5, §6, §7
On the first experimental day, the basal histamine PC100 was assessed. The next day, saline was inhaled for 15 min, 0.5 h prior to and at 8 h after allergen inhalation, and histamine PC100 measurements were performed 6 and 24 h post allergen challenge. One week later, the same protocol was repeated with inhalations of either 25 mM ABH (nebulizer concentration) or saline at t=−0.5 and 8 h. All animals were challenged with increasing doses of allergen (0.5, 1 and 3 mg/ml) until obstruction. […]

[4] = ABH 25 mM nebulizer 0.5 h before and 8 h after allergen, equal allergen dose, mean ± SEM

| Compound | allergen-induced AHR after the EAR, PC100 ratio pre/post challenge ([1]; after ABH inhalation (25 mM nebulizer) at 5.5 h after ovalbumin, PC100 at 6 h, from 4.77±0.56-fold before inhalation, P<0.001) | allergen-induced AHR after the LAR, PC100 ratio pre/post challenge ([1]; after ABH inhalation (25 mM nebulizer) at 23.5 h after ovalbumin, PC100 at 24 h, from 1.95±0.23-fold before inhalation, P<0.10) | effect on allergen-induced AHR after the EAR (histamine PC100) [1] | effect on allergen-induced AHR after the LAR (histamine PC100) [1] | effect on basal airway responsiveness to inhaled histamine (PC100) [1] | AUC EAR (% change in Ppl time response curve between 0 and 5 h after allergen exposure) [2, 4] | AUC LAR (% change in Ppl time response curve between 8 and 24 h after allergen exposure) [2, 4] | initial peak response in Ppl after allergen challenge (allergen-induced acute bronchial obstruction) ([2]; ABH 25 mM nebulizer versus saline at the same allergen dose, P<0.01) | allergen-induced AHR after the LAR ([2]; equal allergen dose, saline treated 1.68±0.14-fold, P<0.005) | allergen-induced AHR after the EAR ([2]; equal allergen dose, saline treated 4.14±0.59-fold, P<0.01) | AHR100 (PC100 ratio pre/post allergen challenge) after EAR ([2]; histamine PC100 24 h before and 6 h after allergen, ABH 25 mM nebulizer 0.5 h before and 8 h after allergen, equal allergen dose) | AHR100 (PC100 ratio pre/post allergen challenge) after LAR ([2]; histamine PC100 24 h before and 24 h after allergen, ABH 25 mM nebulizer 0.5 h before and 8 h after allergen, equal allergen dose) | protection against the AHR after the EAR as compared to saline control ([3]; 25 mM ABH 0.5 h before allergen challenge) | allergen-induced AHR after the LAR, PC100 ratio pre/post challenge ([3]; ABH 25 mM nebulizer 0.5 h before and 8 h after allergen, challenged until obstruction, saline control 2.08±0.31-fold, P<0.005) | allergen-induced AHR after the EAR, PC100 ratio pre/post challenge ([3]; ABH 25 mM nebulizer 0.5 h before and 8 h after allergen, challenged until obstruction, saline control week 1 6.33±1.30-fold, P<0.05) | fold higher ovalbumin needed to induce airways obstruction compared to saline treatment ([3]; ABH week 2 versus saline of the same animals week 1) | occurrence of AHR after the LAR ([3]; additional inhalation of 25 mM ABH at 8 h after allergen challenge) | ovalbumin dose needed to induce airways obstruction ([3]; after pretreatment with ABH 25 mM nebulizer in week 2, saline in same animals week 1 0.04±0.01 mg, P<0.01) |
| --- | --- | --- | --- | --- | --- | --- | --- | --- | --- | --- | --- | --- | --- | --- | --- | --- | --- | --- |
| N[C@@H](CCCCB(O)O)C(=O)O [ABH, 2(S)-amino-6-boronohexanoic acid] | 2.04±0.34 fold | 1.56±0.47 fold | reversed the allergen-induced AHR after the EAR | trend towards a reduction | without effect | 983 ± 345 % × 5 min | 1697 ± 1043 % × 5 min | highly significant reduction | 1.02±0.02 fold | 1.58±0.24 fold | 1.58 ± 0.24 | 1.02 | significant protection | 1.41±0.25 fold | 3.05±0.51 fold | 32.8 fold | almost completely prevented | 1.31 ± 0.69 mg |
| N=C(N)NCCC[C@@H](N)C(=O)O [D enantiomer of arginine, D-arginine] |  |  | did not affect | did not affect | did not affect |  |  |  |  |  |  |  |  |  |  |  |  |  |
| N=C(N)NCCC[C@H](N)C(=O)O [L-arginine] |  |  | reversed to a similar extent as with ABH | reversed to a similar extent as with ABH | did not affect |  |  |  |  |  |  |  |  |  |  |  |  |  |
